Results: patent US7803600B2 (priority 2002, dated 2010)

What was measured:
COR-L23 cells = experiment: Cell proliferation assay (MTT), COR-L23 parental; type: cell-based; conditions: Homo sapiens, 96 h, 4-day incubation, mean ± SE of at least two experiments, read-out: Sensitivity to cell killing, IC50
Experimental: (§1) The activity of the compound of formula (I) on P-glycoprotein- or Multidrug Resistant Protein-expressing tumour cell lines and respective parental cells, K562/C1,000+ and K562A7, COR-L23/R and COR-L23, was compared to that of a known substrate for P-glycoprotein/Multidrug Resistant Protein, adriamycin.
(§2) All samples tested were dissolved in DMSO and further dilutions (typically 1:1,000) were made in culture medium, with final DMSO concentrations never exceeding 0.1% (v/v) in cell proliferation assays. MTT [3-(4,5-dimethylthiazol-2-yl)-2,5-diphenyltetrazolium bromide], MTS [3-(4,5-dimethylthiazol-2-yl)-5-(3-carboxymethoxyphenyl)-2-(4-sulfophenyl)-2H-tetrazolium inner salt] and PMS [phenazine methosulfate] were dissolved in phosphate-buffered saline (PBS).
(§3) MTT and MTS are both tetrazolium salts widely used in cell proliferation and toxicity tests. Upon entry in a viable cell, these tetrazolium salts are (bio)reduced to an intensely colored formazan derivative. In case of MTT, the formed formazan is crystalline and needs to be dissolved before colorimetric quantification. MTS needs an intermediate electron acceptor (PMS) for its efficient reduction into a soluble formazan end product and is used for suspension cell lines. […]

[1] = test system: K562A7 parental leukemia cells; experiment: Cell proliferation assay (MTS/PMS), K562A7 parental; type: cell-based; conditions: Homo sapiens, 96 h, 4-day incubation, mean ± SE of at least two experiments, read-out: Sensitivity to cell killing, IC50
Experimental: as §1, §2, §3

K562/C1,000+ cells = experiment: Cell proliferation assay (MTS/PMS), K562/C1,000+ P-glycoprotein overexpressing; type: cell-based, human
Experimental: as §1, §2, §3

COR-L23/R cells = experiment: Cell proliferation assay (MTT), COR-L23/R Multidrug Resistant Protein overexpressing; type: cell-based, human
Experimental: as §1, §2, §3

`COc1cccc2c1C(=O)c1c(O)c3c(c(O)c1C2=O)C[C@@](O)(C(=O)CO)C[C@@H]3O[C@H]1C[C@H](N)[C@H](O)[C@H](C)O1` [Adriamycin, adriamycin] was tested, and the IC50 (COR-L23 cells) was 36.6 ± 19.1 nM, the IC50 [1] was 26.8 ± 5.82 nM and the IC50 (K562/C1,000+ cells; Homo sapiens, 96 h, K562/C1,000+ P-glycoprotein overexpressing cells, 4-day incubation, mean ± SE of at least two experiments, read-out: Sensitivity to cell killing, IC50) was 7830 nM. The “Resistance to cell killing as compared to parental cell line” value (K562/C1,000+ cells; K562/C1,000+ versus parental K562A7) was 250 fold, the “Resistance to cell killing as compared to parental cell line” value (COR-L23/R cells; COR-L23/R versus parental COR-L23) was 20 fold and the IC50 (COR-L23/R cells; Homo sapiens, 96 h, COR-L23/R Multidrug Resistant Protein overexpressing cells, 4-day incubation, mean ± SE of at least two experiments, read-out: Sensitivity to cell killing, IC50) was 676 ± 261 nM.
